Data on 25 compounds can be found in US20250171467A1, “FUSED PYRAZOLE AMIDE ANALOGS AS GLUCOSYLCERAMIDE SYNTHASE INHIBITORS” (Merck Sharp & Dohme LLC, priority 2022, published 2025).

The target of this experiment is glucosylceramide synthase (GCS) (Homo sapiens (Human), UniProt Q16739). Nature of the experiment: UDP-Glo glucosylceramide synthase biochemical assay. As to conditions: endogenous GCS in Golgi preparations from human A375 malignant melanoma skin cells; C6 ceramide and UDP-glucose substrates; 20 h incubation at room temperature; UDP detected by luminescence. From the text: A UDP-Glo™ glucosylceramide synthase biochemical assay was utilized to evaluate the effect of test compounds on the activity of endogenous levels of GCS enzyme contained within Golgi preparations isolated from human A375 malignant melanoma skin cells. The UDP-Glo™ glucosylceramide synthase assay uses UDP-Glucose as a nucleotide-glycosyl donor and ceramide as substrate acceptor molecules. In the reaction, glucosylceramide synthase (GCS) transfers glucose from UDP-Glucose to ceramide. Glucosylceramide and UDP are released as products.
Chain of glucosylceramide synthase (GCS) (Q16739 whole entry): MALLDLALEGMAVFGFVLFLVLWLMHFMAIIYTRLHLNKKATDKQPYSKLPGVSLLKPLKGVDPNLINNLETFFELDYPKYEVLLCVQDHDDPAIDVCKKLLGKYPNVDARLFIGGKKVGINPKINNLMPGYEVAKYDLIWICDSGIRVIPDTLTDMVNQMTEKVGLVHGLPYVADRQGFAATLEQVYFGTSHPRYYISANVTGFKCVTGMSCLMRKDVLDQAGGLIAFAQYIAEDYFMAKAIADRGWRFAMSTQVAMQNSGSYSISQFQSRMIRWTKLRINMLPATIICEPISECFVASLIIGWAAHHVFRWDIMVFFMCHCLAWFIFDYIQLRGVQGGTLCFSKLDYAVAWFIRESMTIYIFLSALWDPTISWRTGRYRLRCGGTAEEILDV
Using Promega's UDP-Glo™ Glycosyltransferase assay kit (Promega Corporation, Madison, WI, USA (Promega)), GCS activity was indirectly measured by detecting the amount of UDP produced. An aliquot of GCS enzyme (1.5 μg crude golgi preparation, total protein) and titrated test compound were aliquoted to each well and incubated for 30 minutes at room temperature. […] An equivalent volume of substrate mixture was then added to each well. Following a 20 h incubation at room temperature to allow for GCS turnover of substrate, an equal volume of UDP detection reagent (Promega) was added to each well and incubated for an additional 75 minutes at room temperature to simultaneously convert the accumulated UDP product into ATP and generate light in a luciferase reaction. The generated light was detected using a luminometer. […] luminescence values (RLUs) were normalized to mean “min” and “max” effects, as determined on each plate. […] Values for % Emax and EC50 were determined by best-fitting the normalized data to a curve in Activity Base along a four-parameter logistic nonlinear regression (4PL) model (based on the Levenberg-Marquardt algorithm and defined by the equation below): […]
where: n is 4PMin (bottom of the curve); m is 4PMax (top of the curve); i is IP (inflection point of curve); and p is slope. See Levenberg, K., “A Method for the Solution of Certain Problems in Least Squares”, Quart. Appl. Math. 2, (1944), pp 164-168 and Marquardt, D., “An Algorithm for Least Squares Estimation on Nonlinear Parameters”, SIAM J. Appl. Math. 11, (1963) pp 431-441.
In the case of `COc1ccc(-n2nc(C(=O)N3CCNCC4(CC4)C3)c3c2CCOC3)cc1` [Compound 8, 5,8-diazaspiro[2.6]nonan-8-yl-[1-(4-methoxyphenyl)-1,4,6,7-tetrahydropyrano[4,3-c]pyrazol-3-yl]methanone], the EC50 came to 1200 nM.

In turn, `COc1ccc(-n2nc(C(=O)N3CCCNCC3)c3c2CCOC3)cc1` [Compound 6, 1,4-diazepan-1-yl-[1-(4-methoxyphenyl)-1,4,6,7-tetrahydropyrano[4,3-c]pyrazol-3-yl]methanone] returned a concentration for a half-maximal effect (EC50) of 360 nM.

In turn, `COc1ccc(-n2nc(C(=O)N3CCN4CCC3C(F)(F)C4)c3c2CCC3)cc1C(F)(F)F` (single isomer, unassigned) [Compound 22, [R or S]-(6,6-difluoro-1,4-diazabicyclo[3.2.2]nonan-4-yl)-[1-[4-methoxy-3-(trifluoromethyl)phenyl]-1,4,5,6-tetrahydrocyclopenta[c]pyrazol-3-yl]methanone] came in with an EC50 of 16 nM.

The compound `O=C(c1nn(-c2ccc(OC(F)F)cc2)c2c1COCC2)N1CCN2CCC1CC2` [Compound 5, 1,4-diazabicyclo[3.2.2]nonan-4-yl-[1-[4-(difluoromethoxy)phenyl]-1,4,6,7-tetrahydropyrano[4,3-c]pyrazol-3-yl]methanone] returned a concentration for a half-maximal effect (EC50) of 29 nM.

In the case of `O=C(c1nn(-c2ccc(OC(F)F)c(Cl)c2)c2c1CCC2)N1CCN2CCC1CC2` [Compound 28, [1-[3-chloro-4-(difluoromethoxy)phenyl]-1,4,5,6-tetrahydrocyclopenta[c]pyrazol-3-yl]-(1,4-diazabicyclo[3.2.2]nonan-4-yl)methanone], the EC50 stood at 1.3 nM.

The compound `COc1ccc(-n2nc(C(=O)N3CCCNCC3C)c3c2CCOC3)cc1` (racemic) [Compound 7, Racemic-[1-(4-methoxyphenyl)-1,4,6,7-tetrahydropyrano[4,3-c]pyrazol-3-yl]-(2-methyl-1,4-diazepan-1-yl)methanone] came in with an EC50 of 250 nM.

For the compound `COc1ccc(-n2nc(C(=O)N3CCC4CCC(C3)N4)c3c2CCOC3)cc1` (racemic) [Compound 12, Racemic-3,9-diazabicyclo[4.2.1]nonan-3-yl-[1-(4-methoxyphenyl)-1,4,6,7-tetrahydropyrano[4,3-c]pyrazol-3-yl]methanone], the concentration giving a half-maximal response (EC50) stood at 840 nM.

With `COc1ccc(-n2nc(C(=O)N3CCN4CCC3C4)c3c2CCOC3)cc1` (racemic) [Compound 10, Racemic-1,4-diazabicyclo[3.2.1]octan-4-yl-[1-(4-methoxyphenyl)-1,4,6,7-tetrahydropyrano[4,3-c]pyrazol-3-yl]methanone], the EC50 was 180 nM.

`COc1ccc(-n2nc(C(=O)N3CCN4CCC3C(F)(F)C4)c3c2CCOC3)cc1` (single isomer, unassigned) [Compound 3, [(5˜{S or R})-6,6-difluoro-1,4-diazabicyclo[3.2.2]nonan-4-yl]-[1-(4-methoxyphenyl)-1,4,6,7-tetrahydropyrano[4,3-c]pyrazol-3-yl]methanone] gave a 50% effective concentration (EC50) of 1400 nM.

`COc1ccc(-n2nc(C(=O)N3CCN4CCC3C(F)(F)C4)c3c2CCOC3)cc1` (single isomer, unassigned) [Compound 2, [(5˜{R or S})-6,6-difluoro-1,4-diazabicyclo[3.2.2]nonan-4-yl]-[1-(4-methoxyphenyl)-1,4,6,7-tetrahydropyrano[4,3-c]pyrazol-3-yl]methanone] gave a concentration giving a half-maximal response (EC50) of 7700 nM.

`COc1ccc(-n2nc(C(=O)N3CCN4CCC3CC4)c3c2CCOC3)cc1Cl` [Compound 16, [1-(3-chloro-4-methoxyphenyl)-1,4,6,7-tetrahydropyrano[4,3-c]pyrazol-3-yl]-(1,4-diazabicyclo[3.2.2]nonan-4-yl)methanone] yielded an EC50 of 2.2 nM.

`COc1ccc(-n2nc(C(=O)N3CCCN(C)CC3)c3c2CCOC3)cc1` [Compound 4, [1-(4-methoxyphenyl)-1,4,6,7-tetrahydropyrano[4,3-c]pyrazol-3-yl]-(4-methyl-1,4-diazepan-1-yl)methanone] returned a concentration for a half-maximal effect (EC50) of 940 nM.

`Cc1ccc(-n2nc(C(=O)N3CCN4CCC3CC4)c3c2CCC3)cc1Cl` [Compound 27, [1-(3-chloro-4-methylphenyl)-1,4,5,6-tetrahydrocyclopenta[c]pyrazol-3-yl]-(1,4-diazabicyclo[3.2.2]nonan-4-yl)methanone] returned an EC50 of 0.3 nM.

On to `COc1ccc(-n2nc(C(=O)N3CCNCC(F)C3)c3c2CCOC3)cc1` (racemic) [Compound 13, Racemic-(6-fluoro-1,4-diazepan-1-yl)-[1-(4-methoxyphenyl)-1,4,6,7-tetrahydropyrano[4,3-c]pyrazol-3-yl]methanone], for which the response was half-maximal at 2500 nM (EC50).

As for `O=C(c1nn(-c2cccc(Cl)c2)c2c1CCC2)N1CCN2CCC1CC2` [Compound 26, [1-(3-chlorophenyl)-1,4,5,6-tetrahydrocyclopenta[c]pyrazol-3-yl]-(1,4-diazabicyclo[3.2.2]nonan-4-yl)methanone], the EC50 was found to be 1.5 nM.

In the case of `O=C(c1nn(-c2ccc(F)c(Cl)c2)c2c1CCC2)N1CCN2CCC1CC2` [Compound 25, [1-(3-chloro-4-fluorophenyl)-1,4,5,6-tetrahydrocyclopenta[c]pyrazol-3-yl]-(1,4-diazabicyclo[3.2.2]nonan-4-yl)methanone], a half-maximal response (EC50) required 1.3 nM.

`O=C(c1nn(-c2ccc(Cl)c(Cl)c2)c2c1CCC2)N1CCN2CCC1CC2` [Compound 24, 1,4-diazabicyclo[3.2.2]nonan-4-yl-[1-(3,4-dichlorophenyl)-1,4,5,6-tetrahydrocyclopenta[c]pyrazol-3-yl]methanone]: the concentration for a half-maximal effect (EC50) came to 0.1 nM.

The compound `COc1ccc(-n2nc(C(=O)N3CCN4CCC3CC4)c3c2CCC3)cc1C(F)(F)F` [Compound 21, 1,4-diazabicyclo[3.2.2]nonan-4-yl-[1-[4-methoxy-3-(trifluoromethyl)phenyl]-1,4,5,6-tetrahydrocyclopenta[c]pyrazol-3-yl]methanone] yielded an EC50 of 0.1 nM.

`COc1ccc(-n2nc(C(=O)N3CCN4CCC3CC4)c3c2CCC3)cc1Cl` [Compound 19, [1-(3-chloro-4-methoxyphenyl)-1,4,5,6-tetrahydrocyclopenta[c]pyrazol-3-yl]-(1,4-diazabicyclo[3.2.2]nonan-4-yl)methanone] returned an EC50 of 0.3 nM.

In turn, `COc1ccc(-n2nc(C(=O)N3CC[N@@]4CCC3C(F)(F)C4)c3c2CCC3)cc1C(F)(F)F` (single isomer, unassigned) [Compound 23, [S or R]-(6,6-difluoro-1,4-diazabicyclo[3.2.2]nonan-4-yl)-[1-[4-methoxy-3-(trifluoromethyl)phenyl]-1,4,5,6-tetrahydrocyclopenta[c]pyrazol-3-yl]methanone] came in with an EC50 of 66 nM.

Compound `COc1ccc(-n2nc(C(=O)N3CCN4CCC3CC4)c3c2CCC3)cc1` [Compound 17, 1,4-diazabicyclo[3.2.2]nonan-4-yl-[1-(4-methoxyphenyl)-1,4,5,6-tetrahydrocyclopenta[c]pyrazol-3-yl]methanone] came in with a half-maximal effective concentration (EC50) of 1.7 nM.

`COc1ccc(-n2nc(C(=O)N3CCCN(C)CC3)c3c2CCOC3)cc1F` [Compound 15, [1-(3-fluoro-4-methoxyphenyl)-1,4,6,7-tetrahydropyrano[4,3-c]pyrazol-3-yl]-(4-methyl-1,4-diazepan-1-yl)methanone] displayed a concentration giving a half-maximal response (EC50) of 730 nM.

`COc1ccc(-n2nc(C(=O)N3CCCN(C)CC3)c3c2CCOC3)cc1C(F)(F)F` [Compound 14, [1-[4-methoxy-3-(trifluoromethyl)phenyl]-1,4,6,7-tetrahydropyrano[4,3-c]pyrazol-3-yl]-(4-methyl-1,4-diazepan-1-yl)methanone] had an EC50 of 320 nM.

As for `COc1ccc(-n2nc(C(=O)N3CCN4CCC3CC4)c3c2CCC3)cc1C` [Compound 20, 1,4-diazabicyclo[3.2.2]nonan-4-yl-[1-(4-methoxy-3-methylphenyl)-1,4,5,6-tetrahydrocyclopenta[c]pyrazol-3-yl]methanone], it took 0.4 nM to reach a half-maximal effect (EC50).

For `COc1ccc(-n2nc(C(=O)N3CCN4CCC3CC4)c3c2CCC3)cc1F` [Compound 18, 1,4-diazabicyclo[3.2.2]nonan-4-yl-[1-(3-fluoro-4-methoxyphenyl)-1,4,5,6-tetrahydrocyclopenta[c]pyrazol-3-yl]methanone], the concentration for a half-maximal effect (EC50) is 0.9 nM.
